Where two headings read alike, the source gives them in different places.

A short description of data set [1]: Desloratadine stability (assay, regression analysis). The data set is classed as physicochemical. The note with it: Example 1 formulation, regression analysis of data through 18 months. As to the method: Data obtained through 18 months at 25° C./60% RH and 30° C./65% RH were evaluated by regression analysis in order to determine a suitable shelf life (see FIGS. 2A and 2B).

The conditions of data set [2]: cited from earlier work.
For data set [3] the following is noted: Example 1 formulation; throughout the 18 month stability interval. The method, then: (§1) Three batches of the exemplary formulation detailed in Example 1 were manufactured (referred to herein as Batches A, B, and C) and packaged in two different sizes of amber glass bottles (120 mL and 15 mL).
The nature of another data set: Sodium benzoate assay. The data set is classed as physicochemical. The note with it: Example 1 formulation; throughout the 18 month stability interval. As to the method: as §1

On to `Clc1ccc2c(c1)CCc1cccnc1C2=C1CCNCC1` [Desloratadine, 8-chloro-6,11-dihydro-11-(4-piperidinylidene)-5H-benzo[5,6]cyclohepta[1,2-b]pyridine], for which the “predicted desloratadine assay value over a 24 month shelf life” value in data set [1] (stored at 25° C./60% RH) is 100.9%; in data set [1] (stored at 30° C./65% RH), 98.9%. The solubility result in data set [2] (in ethanol) is “very soluble”; in data set [2] (in propylene glycol), “very soluble”; in data set [2] (in water), “slightly soluble”.
`O=C([O-])CN(CCN(CC(=O)[O-])CC(=O)O)CC(=O)O.[Na+].[Na+]` [EDTA, Edetate Disodium]: in data set [3], the EDTA assay trend entry is “no degradation trend”.
As to `O=C([O-])c1ccccc1.[Na+]` [sodium benzoate], the “sodium benzoate assay trend” value in “Sodium benzoate assay” is listed as “no degradation trend”.

(Values after patent US20080262017A1, “Sugar-Free Storage-Stable Antihistaminic Syrups” (priority 2006, published 2008).)
